Results from patent publication US12458021B2, “Microbiocidal derivatives” (SYNGENTA CROP PROTECTION AG, priority 2019, dated 2025).

What was measured:
[1] = tested on: Glomerella lagenarium (Colletotrichum lagenarium); assay: Glomerella lagenarium (Colletotrichum lagenarium) / liquid culture (anthracnose); type: cell-based; settings: Colletotrichum orbiculare, PDB potato dextrose broth, 24° C., 3-4 days after application, read-out: control of Glomerella lagenarium (inhibition of growth, photometric)
Summary of the method: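 Conidia from cryogenic storage suspended in potato dextrose broth and added to DMSO compound solution in plates. Incubated at 24° C; growth inhibition read photometrically 3-4 days after application.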

[2] = tested on: Magnaporthe grisea (Pyricularia oryzae); assay: whole plant or invertebrate; type: in vivo; settings: foliar, read-out: control of Magnaporthe grisea (percent disease control compared to untreated)
Alternaria solani = Alternaria solani / tomato / leaf disc (early blight); type: in vivo; settings: foliar, tomato leaf disks cv. Baby, inoculated 2 days after application, assessed 5-7 days after application, read-out: control of Alternaria solani (percent disease control compared to untreated)
Method: Example B1: Alternaria solani/Tomato/Leaf Disc (Early Blight) Tomato leaf disks cv. Baby are placed on agar in multiwell plates (24-well format) and sprayed with the formulated test compound diluted in water. The leaf disks are inoculated with a spore suspension of the fungus 2 days after application. The inoculated leaf disks are incubated at 23° C./21° C. […] […]-185.

[3] = tested on: Blumeria graminis f. sp. tritici (Erysiphe graminis f. sp. tritici); assay: Blumeria graminis f. sp. tritici / wheat / leaf disc preventative (powdery mildew on wheat); type: in vivo; settings: foliar, wheat leaf segments cv. Kanzler, inoculated 1 day after application, assessed 6-8 days after application, read-out: control of Blumeria graminis f. sp. tritici (percent disease control compared to untreated)
Source text: Example B4: Blumeria graminis f. sp. tritici (Erysiphe graminis f. sp. tritici)/Wheat/Leaf Disc Preventative (Powdery Mildew on Wheat) Wheat leaf segments cv. Kanzler are placed on agar in a multiwell plate (24-well format) and sprayed with the formulated test compound diluted in water. The leaf disks are inoculated by shaking powdery mildew infected plants above the test plates 1 day after application. […] […]-192.

Sclerotinia sclerotiorum = Sclerotinia sclerotiorum / liquid culture (cottony rot); type: cell-based; settings: PDB potato dextrose broth, mycelia fragments, 24° C., 3-4 days after application, read-out: control of Sclerotinia sclerotiorum (inhibition of growth, photometric)
Method: Example B14: Sclerotinia sclerotiorum/Liquid Culture (Cottony Rot) Mycelia fragments of a newly grown liquid culture of the fungus are directly mixed into nutrient broth (PDB potato dextrose broth). After placing a (DMSO) solution of test compound into a microtiter plate (96-well format) the nutrient broth containing the fungal material is added. The test plates are incubated at 24° C. and the inhibition of growth is determined photometrically 3-4 days after application.

[4] = tested on: Monographella nivalis (Microdochium nivale); assay: Monographella nivalis (Microdochium nivale) / liquid culture (foot rot cereals); type: cell-based; settings: PDB potato dextrose broth, 24° C., 4-5 days after application, read-out: control of Monographella nivalis (inhibition of growth, photometric)
Summary of the method: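 Cryostored M. nivalis conidia mixed into potato dextrose broth and added to 96-well plates holding test compound in DMSO. Incubated at 24° C; growth inhibition read photometrically 4-5 days after application.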

[5] = tested on: Mycosphaerella graminicola (Septoria tritici); assay: Mycosphaerella graminicola (Septoria tritici) / liquid culture (Septoria blotch); type: cell-based; settings: Zymoseptoria tritici, PDB potato dextrose broth, 24° C., 4-5 days after application, read-out: control of Mycosphaerella graminicola (inhibition of growth, photometric)
Summary of the method: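 Conidia from cryogenic storage were mixed into potato dextrose broth and added to test compound in DMSO. Plates were incubated at 24° C, and growth inhibition was read photometrically 4-5 days after application.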

Pyrenophora teres = Pyrenophora teres / barley / leaf disc preventative (net blotch); type: in vivo; settings: foliar, barley leaf segments cv. Hasso, inoculated 2 days after application, assessed 5-7 days after application, read-out: control of Pyrenophora teres (disease control compared to untreated)
Summary of the method: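 Barley cv. Hasso leaf discs on agar were sprayed with diluted formulated compound, then inoculated with spore suspension 2 days later. Incubation at 20 °C, 65% rh, 12 h light/dark; disease control versus untreated assessed 5-7 days after application.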

[6] = tested on: Mycosphaerella arachidis (Cercospora arachidicola); assay: Mycosphaerella arachidis (Cercospora arachidicola) / liquid culture (early leaf spot); type: cell-based; settings: PDB potato dextrose broth, 24° C., 4-5 days after application, read-out: control of Mycosphaerella arachidis (inhibition of growth, photometric)
Summary of the method: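 Conidia from cryogenic storage suspended in potato dextrose broth and added to compound in DMSO. Incubation at 24° C; growth inhibition read photometrically 4-5 days after application.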

[7] = tested on: Phaeosphaeria nodorum (Septoria nodorum); assay: Phaeosphaeria nodorum (Septoria nodorum) / wheat / leaf disc preventative (glume blotch); type: in vivo; settings: Parastagonospora nodorum, foliar, wheat leaf segments cv. Kanzler, inoculated 2 days after application, assessed 5-7 days after application, read-out: control of Phaeosphaeria nodorum (percent disease control compared to untreated)
Summary of the method: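 Wheat cv. Kanzler leaf discs on agar were sprayed with formulated compound diluted in water and inoculated with spores 2 days later. Discs were kept at 20° C, 75% rh, 12 h light/dark; percent disease control versus untreated was scored 5-7 days after application.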

[8] = tested on: Puccinia recondita f. sp. tritici; assay: Puccinia recondita f. sp. tritici / wheat / leaf disc preventative (brown rust); type: in vivo; settings: foliar, wheat leaf segments cv. Kanzler, inoculated 1 day after application, assessed 7-9 days after application, read-out: control of Puccinia recondita f. sp. tritici, preventative (percent disease control compared to untreated)
Summary of the method: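 Wheat leaf segments (cv. Kanzler) on agar were sprayed with formulated compound, then inoculated with spores 1 day later. Segments were incubated at 19 °C, 75% rh with 12 h light/dark. Percent disease control versus untreated was scored 7–9 days after application.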

[9] = tested on: Botryotinia fuckeliana (Botrytis cinerea); assay: Botryotinia fuckeliana (Botrytis cinerea) / liquid culture (gray mould); type: cell-based; settings: Vogels broth, 24° C., 3-4 days after application, read-out: control of Botryotinia fuckeliana (inhibition of growth, photometric)
Method: Example B2: Botryotinia fuckeliana (Botrytis cinerea)/Liquid Culture (Gray Mould) Conidia of the fungus from cryogenic storage are directly mixed into nutrient broth (Vogels broth). After placing a (DMSO) solution of test compound into a microtiter plate (96-well format), the nutrient broth containing the fungal spores is added. The test plates are incubated at 24° C. and the inhibition of growth is determined photometrically 3-4 days after application. […] […]-190.

COc1cnc(Nc2cc(F)cc(F)c2)nc1C(=O)NC1CCC1(C)C (stereo not shown) [Compound P-10, 2-(3,5-difluoroanilino)-N-(2,2-dimethylcyclobutyl)-5-methoxy-pyrimidine-4-carboxamide]
≥ 80%: inhibition at 20 ppm [1] | pest or weed control at 200 ppm [2] | pest or weed control at 200 ppm (Alternaria solani) | pest or weed control at 200 ppm [3] | inhibition at 20 ppm (Sclerotinia sclerotiorum) | inhibition at 20 ppm [4] | inhibition at 20 ppm [5] | pest or weed control at 200 ppm (Pyrenophora teres)

CC1(C)CCC1NC(=O)c1nc(Nc2cnsc2)ccc1O (stereo not shown) [Compound P-19, N-(2,2-dimethylcyclobutyl)-3-hydroxy-6-(isothiazol-4-ylamino)pyridine-2-carboxamide]
≥ 80%: inhibition at 20 ppm [1] | inhibition at 20 ppm [6] | inhibition at 20 ppm (Sclerotinia sclerotiorum) | inhibition at 20 ppm [4] | inhibition at 20 ppm [5]

CCOc1ccc(Nc2cc(F)cc(F)c2)nc1C(=O)NC1CCC1(C)C (stereo not shown) [Compound P-44, 6-(3,5-difluoroanilino)-N-(2,2-dimethylcyclobutyl)-3-ethoxy-pyridine-2-carboxamide]
≥ 80%: inhibition at 20 ppm [1] | pest or weed control at 200 ppm [7] | pest or weed control at 200 ppm [2] | pest or weed control at 200 ppm (Alternaria solani) | inhibition at 20 ppm [6] | pest or weed control at 200 ppm [3] | inhibition at 20 ppm (Sclerotinia sclerotiorum) | inhibition at 20 ppm [4] | inhibition at 20 ppm [5] | pest or weed control at 200 ppm (Pyrenophora teres)

COc1ccc(Nc2cc(F)cc(F)c2)nc1C(=O)NCC1(C)CCOC2(CCC2)C1 (stereo not shown) [Compound P-67, 6-(3,5-difluoroanilino)-3-methoxy-N-[(8-methyl-5-oxaspiro[3.5]nonan-8-yl)methyl]pyridine-2-carboxamide]
≥ 80%: inhibition at 20 ppm [1] | pest or weed control at 200 ppm [2] | pest or weed control at 200 ppm (Alternaria solani) | inhibition at 20 ppm [6] | pest or weed control at 200 ppm [3] | inhibition at 20 ppm (Sclerotinia sclerotiorum) | inhibition at 20 ppm [4] | inhibition at 20 ppm [5]

COc1ccc(Nc2cc(F)cc(F)c2)nc1C(=O)NCCc1ccc(OC(F)(F)F)cc1 [Compound P-74, 6-(3,5-difluoroanilino)-3-methoxy-N-[2-[4-(trifluoromethoxy)phenyl]ethyl]pyridine-2-carboxamide]
≥ 80%: inhibition at 20 ppm [1] | pest or weed control at 200 ppm [2] | pest or weed control at 200 ppm (Alternaria solani) | inhibition at 20 ppm [6] | pest or weed control at 200 ppm [3] | inhibition at 20 ppm (Sclerotinia sclerotiorum) | inhibition at 20 ppm [4] | inhibition at 20 ppm [5]

COc1ccc(Nc2cc(F)cc(F)c2)nc1C(=O)NC1(C)CCOC1 (stereo not shown) [Compound P-122, 6-(3,5-difluoroanilino)-3-methoxy-N-(3-methyltetrahydrofuran-3-yl)pyridine-2-carboxamide]
≥ 80%: inhibition at 20 ppm [1] | pest or weed control at 200 ppm [2] | pest or weed control at 200 ppm [3] | inhibition at 20 ppm (Sclerotinia sclerotiorum) | inhibition at 20 ppm [4] | inhibition at 20 ppm [5]

COc1ccc(Nc2cc(F)cc(F)c2)nc1C(=O)NC1(C#N)CCCC1 [Compound P-123, N-(1-cyanocyclopentyl)-6-(3,5-difluoroanilino)-3-methoxy-pyridine-2-carboxamide]
≥ 80%: inhibition at 20 ppm [1] | pest or weed control at 200 ppm [2] | pest or weed control at 200 ppm [3] | inhibition at 20 ppm (Sclerotinia sclerotiorum) | inhibition at 20 ppm [4] | inhibition at 20 ppm [5] | pest or weed control at 200 ppm [8]

COc1ccc(Nc2cccc(F)c2)nc1C(=O)NCC(C)(C)C [Compound P-139, N-(2,2-dimethylpropyl)-6-(3-fluoroanilino)-3-methoxy-pyridine-2-carboxamide]
≥ 80%: inhibition at 20 ppm [1] | pest or weed control at 200 ppm [7] | pest or weed control at 200 ppm [2] | pest or weed control at 200 ppm (Alternaria solani) | inhibition at 20 ppm [6] | pest or weed control at 200 ppm [3] | inhibition at 20 ppm (Sclerotinia sclerotiorum) | inhibition at 20 ppm [4] | inhibition at 20 ppm [9] | inhibition at 20 ppm [5] | pest or weed control at 200 ppm (Pyrenophora teres) | pest or weed control at 200 ppm [8]

COc1ccc(Nc2cc(F)c(F)c(F)c2)nc1C(=O)NCC(C)(C)C [Compound P-145, N-(2,2-dimethylpropyl)-3-methoxy-6-(3,4,5-trifluoroanilino)pyridine-2-carboxamide]
≥ 80%: inhibition at 20 ppm [1] | pest or weed control at 200 ppm [7] | pest or weed control at 200 ppm [2] | pest or weed control at 200 ppm (Alternaria solani) | inhibition at 20 ppm [6] | pest or weed control at 200 ppm [3] | inhibition at 20 ppm (Sclerotinia sclerotiorum) | inhibition at 20 ppm [4] | inhibition at 20 ppm [9] | inhibition at 20 ppm [5] | pest or weed control at 200 ppm (Pyrenophora teres) | pest or weed control at 200 ppm [8]

COc1ccc(Nc2cc(F)cc(C#N)c2)nc1C(=O)NC(C)(C)C [Compound P-147, N-tert-butyl-6-(3-cyano-5-fluoro-anilino)-3-methoxy-pyridine-2-carboxamide]
≥ 80%: inhibition at 20 ppm [1] | pest or weed control at 200 ppm [2] | pest or weed control at 200 ppm (Alternaria solani) | pest or weed control at 200 ppm [3] | inhibition at 20 ppm (Sclerotinia sclerotiorum) | inhibition at 20 ppm [4] | inhibition at 20 ppm [5] | pest or weed control at 200 ppm (Pyrenophora teres) | pest or weed control at 200 ppm [8]

COc1ccc(Nc2ccc3occc3c2)nc1C(=O)NC(C)(C)C [Compound P-157, 6-(benzofuran-5-ylamino)-N-tert-butyl-3-methoxy-pyridine-2-carboxamide]
≥ 80%: inhibition at 20 ppm [1] | inhibition at 20 ppm (Sclerotinia sclerotiorum) | inhibition at 20 ppm [4] | inhibition at 20 ppm [5]

COc1ccc(Nc2cc(F)cc(F)c2)nc1C(=O)NC1(C(C)(C)C)CCC1 [Compound P-180, N-(1-tert-butylcyclobutyl)-6-(3,5-difluoroanilino)-3-methoxy-pyridine-2-carboxamide]
≥ 80%: inhibition at 20 ppm [1] | pest or weed control at 200 ppm [7] | pest or weed control at 200 ppm [2] | pest or weed control at 200 ppm (Alternaria solani) | inhibition at 20 ppm [6] | pest or weed control at 200 ppm [3] | inhibition at 20 ppm (Sclerotinia sclerotiorum) | inhibition at 20 ppm [4] | inhibition at 20 ppm [5] | pest or weed control at 200 ppm (Pyrenophora teres) | pest or weed control at 200 ppm [8]
